{"source": "paper PMC10747725", "about": "“The Synthesis, In Vitro Bio-Evaluation, and In Silico Molecular Docking Studies of Pyrazoline–Thiazole Hybrid Analogues as Promising Anti-α-Glucosidase and Anti-Urease Agents” (Pharmaceuticals, 2023)", "key": {"α-glucosidase": {"target": "α-glucosidase", "experiment": "α-Glucosidase inhibitory assay", "assay_type": "biochemical", "settings": "in vitro; standard acarbose; N.A * = Not active; read-out: α-Glucosidase IC50 (µM ±SEM)", "description": "A procedure based on the previously reported procedure with minor modifications was used to determine the inhibitory capacity of the newly designed derivatives of benzothiazole-derived pyrazoline-based thiazole (1–17). For 20 min at 37 °C, […] in 100 mM of phosphate buffer (pH 6.8) for 20 min. The reaction mixture was then incubated for 1 h at 37 °C with 250 mL of 4-nitrophenyl-b-D-glucopyranoside solution and 250 mL of 1% starch dissolved in 100 mM of phosphate buffer (pH 6.8), respectively. Following this, the reaction mixture was heated for 10 min with 1.0 mL of 3,5-dinitrosalicylic acid colouring reagent. The absorbance of the final reaction mixture was determined for α-glucosidase at 405 nm. To correct the absorbance, a blank was prepared. […] A percentage of the inhibitory activity was calculated using a control sample without the inhibitors."}, "urease": {"target": "urease (Canavalia ensiformis, UniProt P07374)", "sequence (P07374 whole entry, looked up)": "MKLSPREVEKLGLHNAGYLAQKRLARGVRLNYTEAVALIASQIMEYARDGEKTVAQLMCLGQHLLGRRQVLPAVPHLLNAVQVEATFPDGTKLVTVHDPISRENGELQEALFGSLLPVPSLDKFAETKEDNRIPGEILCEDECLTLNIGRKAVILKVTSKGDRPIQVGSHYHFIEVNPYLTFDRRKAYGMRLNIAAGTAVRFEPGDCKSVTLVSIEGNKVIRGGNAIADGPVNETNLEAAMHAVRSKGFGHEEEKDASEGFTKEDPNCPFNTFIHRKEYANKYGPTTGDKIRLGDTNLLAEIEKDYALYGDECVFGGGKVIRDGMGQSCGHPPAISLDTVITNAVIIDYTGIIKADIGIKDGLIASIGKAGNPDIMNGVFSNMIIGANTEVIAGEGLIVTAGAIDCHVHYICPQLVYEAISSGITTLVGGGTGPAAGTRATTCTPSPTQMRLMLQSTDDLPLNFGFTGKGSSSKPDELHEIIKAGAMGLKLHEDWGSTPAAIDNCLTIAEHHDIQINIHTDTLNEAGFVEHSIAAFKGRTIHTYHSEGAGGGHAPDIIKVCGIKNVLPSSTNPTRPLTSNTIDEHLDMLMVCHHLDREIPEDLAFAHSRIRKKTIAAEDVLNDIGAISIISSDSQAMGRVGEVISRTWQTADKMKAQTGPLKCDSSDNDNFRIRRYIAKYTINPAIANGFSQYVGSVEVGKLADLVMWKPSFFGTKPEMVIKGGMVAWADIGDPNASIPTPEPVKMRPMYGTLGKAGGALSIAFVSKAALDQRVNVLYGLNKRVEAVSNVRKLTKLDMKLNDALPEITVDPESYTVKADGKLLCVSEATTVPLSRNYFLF", "experiment": "biochemical", "description": "During the experiment, 55 L of buffer solution containing 100 mM of urea was combined with 25 L of enzyme solution to prepare reaction mixtures. A volume of 5 L containing 1 mM concentrations of recently produced compounds was then added to these mixtures. After 15 min of incubation at 30 °C, the reactions were allowed to occur in 96-well plates. The detection of ammonia generation by urease was carried out by using the Indophenol technique. A phenol reagent containing 1% w/v phenol and 0.005% w/v sodium nitroprusside was added to each well along with 70 µL of an alkali reagent containing 0.5% w/v NaOH and 0.1% active chloride NaOCl. Utilizing a microplate reader manufactured by Molecular Device in the United States, the increased absorbance was measured at 630 nm after another 50 min. In triplicate, the aforementioned procedures were performed using a constant end volume of […]. The final data, representing the rate at which the absorbance changed per minute, were analysed with the SoftMax Pro program by Molecular Device, New York, NY, USA. In alkaline conditions with a pH of 8.2, the experiments were conducted using 0.01 M K2HPO4·3H2O, 1 mM EDTA, and 0.01 M LiCl. A conventional inhibitor of urease, thiourea, was used in this study to determine the percentage of inhibition."}}, "note": "Like-named read-outs stand apart in the source and are kept apart here."}
{"compound": "O=[N+]([O-])c1cc(Br)ccc1-c1csc(N2N=C(c3cc(Cl)cnc3Cl)CC2c2nc3ccccc3s2)n1", "note": "(stereo not shown) [Compound 1, 2-(1-(4-(4-Bromo-2-nitrophenyl)thiazol-2-yl)-3-(2,5-dichloropyridin-3-yl)-4,5-dihydro-1H-pyrazol-5-yl)benzo[d]thiazole]", "values": [{"measurement": "IC50", "setting": "α-glucosidase", "result": "13.1 ± 0.4", "unit": "µM"}, {"measurement": "IC50", "setting": "urease", "result": "41.5 ± 1.7", "unit": "µM"}, {"measurement": "melting point", "result": "233 to 234", "unit": "°C"}]}
{"compound": "Cc1ccc(C)c(-c2csc(N3N=C(c4cc(Cl)cnc4Cl)CC3c3nc4ccccc4s3)n2)c1", "note": "(stereo not shown) [Compound 2, 2-(3-(2,5-Dichloropyridin-3-yl)-1-(4-(2,5-dimethylphenyl)thiazol-2-yl)-4,5-dihydro-1H-pyrazol-5-yl)benzo[d]thiazole]", "values": [{"measurement": "IC50", "setting": "α-glucosidase", "result": "14.2 ± 0.1", "unit": "µM"}, {"measurement": "IC50", "setting": "urease", "result": "37.2 ± 1.9", "unit": "µM"}, {"measurement": "melting point", "result": "219 to 220", "unit": "°C"}]}
{"compound": "Cc1ccc(-c2csc(N3N=C(c4cc(Cl)cnc4Cl)CC3c3nc4ccccc4s3)n2)cc1", "note": "(stereo not shown) [Compound 3, 2-(3-(2,5-Dichloropyridin-3-yl)-1-(4-(p-tolyl)thiazol-2-yl)-4,5-dihydro-1H-pyrazol-5-yl)benzo[d]thiazole]", "values": [{"measurement": "IC50", "setting": "α-glucosidase", "result": "7.5 ± 0.1", "unit": "µM"}, {"measurement": "IC50", "setting": "urease", "result": "33.2 ± 3.8", "unit": "µM"}, {"measurement": "melting point", "result": "227 to 228", "unit": "°C"}]}
{"compound": "O=[N+]([O-])c1ccc(-c2csc(N3N=C(c4cc(Cl)cnc4Cl)CC3c3nc4ccccc4s3)n2)cc1", "note": "(stereo not shown) [Compound 4, 2-(3-(2,5-Dichloropyridin-3-yl)-1-(4-(4-nitrophenyl)thiazol-2-yl)-4,5-dihydro-1H-pyrazol-5-yl)benzo[d]thiazole]", "values": [{"measurement": "IC50", "setting": "α-glucosidase", "result": "4.1 ± 0.3", "unit": "µM"}, {"measurement": "IC50", "setting": "urease", "result": "23.3 ± 2.4", "unit": "µM"}, {"measurement": "melting point", "result": "232 to 233", "unit": "°C"}]}
{"compound": "O=[N+]([O-])c1ccccc1-c1csc(N2N=C(c3cc(Cl)cnc3Cl)CC2c2nc3ccccc3s2)n1", "note": "(stereo not shown) [Compound 5, 2-(3-(2,5-Dichloropyridin-3-yl)-1-(4-(2-nitrophenyl)thiazol-2-yl)-4,5-dihydro-1H-pyrazol-5-yl)benzo[d]thiazole]", "values": [{"measurement": "IC50", "setting": "α-glucosidase", "result": "6.7 ± 0.3", "unit": "µM"}, {"measurement": "IC50", "setting": "urease", "result": "32.5 ± 2.1", "unit": "µM"}, {"measurement": "melting point", "result": "224 to 225", "unit": "°C"}]}
{"compound": "FC(F)(F)c1ccc(-c2csc(N3N=C(c4cc(Cl)cnc4Cl)CC3c3nc4ccccc4s3)n2)cc1", "note": "(stereo not shown) [Compound 6, 2-(3-(2,5-Dichloropyridin-3-yl)-1-(4-(4-(trifluoromethyl)phenyl)thiazol-2-yl)-4,5-dihydro-1H-pyrazol-5-yl)benzo[d]thiazole]", "values": [{"measurement": "IC50", "setting": "α-glucosidase", "result": "2.5 ± 0.3", "unit": "µM"}, {"measurement": "IC50", "setting": "urease", "result": "14.3 ± 3.9", "unit": "µM"}, {"measurement": "melting point", "result": "225 to 226", "unit": "°C"}]}
{"compound": "Oc1cc(F)ccc1-c1csc(N2N=C(c3cc(Cl)cnc3Cl)CC2c2nc3ccccc3s2)n1", "note": "(stereo not shown) [Compound 7, 2-(2-(5-(Benzo[d]thiazol-2-yl)-3-(2,5-dichloropyridin-3-yl)-4,5-dihydro-1H-pyrazol-1-yl)thiazol-4-yl)-5-fluorophenol]", "values": [{"measurement": "IC50", "setting": "α-glucosidase", "result": "3.2 ± 0.1", "unit": "µM"}, {"measurement": "IC50", "setting": "urease", "result": "19.2 ± 0.1", "unit": "µM"}, {"measurement": "melting point", "result": "228 to 229", "unit": "°C"}]}
{"compound": "CN(C)c1ccc(-c2csc(N3N=C(c4cc(Cl)cnc4Cl)CC3c3nc4ccccc4s3)n2)cc1", "note": "(stereo not shown) [Compound 8, 4-(2-(5-(Benzo[d]thiazol-2-yl)-3-(2,5-dichloropyridin-3-yl)-4,5-dihydro-1H-pyrazol-1-yl)thiazol-4-yl)-N,N-dimethylaniline]", "values": [{"measurement": "IC50", "setting": "urease", "result": "39.2 ± 0.6", "unit": "µM"}, {"measurement": "melting point", "result": "231 to 232", "unit": "°C"}]}
{"compound": "O=[N+]([O-])c1cc(Cl)ccc1-c1csc(N2N=C(c3cc(Cl)cnc3Cl)CC2c2nc3ccccc3s2)n1", "note": "(stereo not shown) [Compound 9, 2-(1-(4-(4-Chloro-2-nitrophenyl)thiazol-2-yl)-3-(2,5-dichloropyridin-3-yl)-4,5-dihydro-1H-pyrazol-5-yl)benzo[d]thiazole]", "values": [{"measurement": "IC50", "setting": "α-glucosidase", "result": "4.4 ± 0.3", "unit": "µM"}, {"measurement": "IC50", "setting": "urease", "result": "29.4 ± 0.1", "unit": "µM"}, {"measurement": "melting point", "result": "230 to 231", "unit": "°C"}]}
{"compound": "COc1ccc(OC)c(-c2csc(N3N=C(c4cc(Cl)cnc4Cl)CC3c3nc4ccccc4s3)n2)c1", "note": "(stereo not shown) [Compound 10, 2-(3-(2,5-Dichloropyridin-3-yl)-1-(4-(2,5-dimethoxyphenyl)thiazol-2-yl)-4,5-dihydro-1H-pyrazol-5-yl)benzo[d]thiazole]", "values": [{"measurement": "IC50", "setting": "α-glucosidase", "result": "8.9 ± 0.2", "unit": "µM"}, {"measurement": "IC50", "setting": "urease", "result": "33.7 ± 0.1", "unit": "µM"}, {"measurement": "melting point", "result": "234 to 235", "unit": "°C"}]}
{"compound": "Fc1ccccc1-c1csc(N2N=C(c3cc(Cl)cnc3Cl)CC2c2nc3ccccc3s2)n1", "note": "(stereo not shown) [Compound 11, 2-(3-(2,5-Dichloropyridin-3-yl)-1-(4-(2-fluorophenyl)thiazol-2-yl)-4,5-dihydro-1H-pyrazol-5-yl)benzo[d]thiazole]", "values": [{"measurement": "melting point", "result": "221 to 222", "unit": "°C"}]}
{"compound": "Fc1ccc(-c2csc(N3N=C(c4cc(Cl)cnc4Cl)CC3c3nc4ccccc4s3)n2)cc1", "note": "(stereo not shown) [Compound 12, 2-(3-(2,5-Dichloropyridin-3-yl)-1-(4-(4-fluorophenyl)thiazol-2-yl)-4,5-dihydro-1H-pyrazol-5-yl)benzo[d]thiazole]", "values": [{"measurement": "IC50", "setting": "α-glucosidase", "result": "3.5 ± 0.1", "unit": "µM"}, {"measurement": "IC50", "setting": "urease", "result": "22.3 ± 0.8", "unit": "µM"}, {"measurement": "melting point", "result": "226 to 227", "unit": "°C"}]}
{"compound": "Clc1cnc(Cl)c(C2=NN(c3nc(-c4ccc(OCc5ccccc5)cc4)cs3)C(c3nc4ccccc4s3)C2)c1", "note": "(stereo not shown) [Compound 13, 2-(1-(4-(4-(Benzyloxy)phenyl)thiazol-2-yl)-3-(2,5-dichloropyridin-3-yl)-4,5-dihydro-1H-pyrazol-5-yl)benzo[d]thiazole]", "values": [{"measurement": "melting point", "result": "242 to 243", "unit": "°C"}]}
{"compound": "Oc1cc(Cl)cc(Cl)c1-c1csc(N2N=C(c3cc(Cl)cnc3Cl)CC2c2nc3ccccc3s2)n1", "note": "(stereo not shown) [Compound 14, 2-(2-(5-(Benzo[d]thiazol-2-yl)-3-(2,5-dichloropyridin-3-yl)-4,5-dihydro-1H-pyrazol-1-yl)thiazol-4-yl)-3,5-dichlorophenol]", "values": [{"measurement": "IC50", "setting": "α-glucosidase", "result": "3.4 ± 0.1", "unit": "µM"}, {"measurement": "IC50", "setting": "urease", "result": "21.8 ± 2.9", "unit": "µM"}, {"measurement": "melting point", "result": "238 to 239", "unit": "°C"}]}
{"compound": "Cc1cc(-c2csc(N3N=C(c4cc(Cl)cnc4Cl)CC3c3nc4ccccc4s3)n2)cc(C)c1Br", "note": "(stereo not shown) [Compound 15, 2-(1-(4-(4-Bromo-3,5-dimethylphenyl)thiazol-2-yl)-3-(2,5-dichloropyridin-3-yl)-4,5-dihydro-1H-pyrazol-5-yl)benzo[d]thiazole]", "values": [{"measurement": "melting point", "result": "221 to 222", "unit": "°C"}]}
{"compound": "Clc1cnc(Cl)c(C2=NN(c3nc(-c4ccc5ccccc5c4)cs3)C(c3nc4ccccc4s3)C2)c1", "note": "(stereo not shown) [Compound 16, 2-(3-(2,5-Dichloropyridin-3-yl)-1-(4-(naphthalen-2-yl)thiazol-2-yl)-4,5-dihydro-1H-pyrazol-5-yl)benzo[d]thiazole]", "values": [{"measurement": "melting point", "result": "243 to 244", "unit": "°C"}]}
{"compound": "Clc1cnc(Cl)c(C2=NN(c3nc(-c4cccc(Cl)c4Cl)cs3)C(c3nc4ccccc4s3)C2)c1", "note": "(stereo not shown) [Compound 17, 2-(1-(4-(2,3-Dichlorophenyl)thiazol-2-yl)-3-(2,5-dichloropyridin-3-yl)-4,5-dihydro-1H-pyrazol-5-yl)benzo[d]thiazole]", "values": [{"measurement": "IC50", "setting": "α-glucosidase", "result": "6.8 ± 0.2", "unit": "µM"}, {"measurement": "IC50", "setting": "urease", "result": "31.3 ± 0.4", "unit": "µM"}, {"measurement": "melting point", "result": "236 to 237", "unit": "°C"}]}
{"compound": "NC(N)=S", "note": "[Thiourea, thiourea, reference compound]", "values": [{"measurement": "IC50", "setting": "urease; in vitro, standard thiourea, N.A * = Not active, read-out: Urease IC50 (µM ± SEM)", "result": "31.4 ± 2.5", "unit": "µM"}]}
